From patent publication US12594276B2, “Inhibitors of human immunodeficiency virus replication” (ViiV Healthcare UK (No.5) Limited, priority 2024, dated 2026)

Key:
[1] = test system: recombinant NL4-3 virus (nef section replaced with Renilla luciferase gene) in MT-2 cells; experiment: HIV cell culture assay (antiviral activity, luciferase readout); format: cell-based; settings: Renilla, NL43, MT-2 cells infected for 4-5 days with recombinant NL4-3 Renilla luciferase virus
How it was run: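 Antiviral EC50 derived from luciferase signal using the exponential median effect equation. Infection of MT-2 cells ran 4-5 days alongside serial dilutions of compound, with virus generated by proviral clone transfection of 293T cells.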

[2] = Compound cytotoxicity, XTT-based colorimetric assay; format: cell-based; settings: human; uninfected MT2 cells, day 4, XTT; read-out: CC50
How it was run: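 Cells seeded as for the antiviral assay but left uninfected (MT2). Compound exposure continued to day 4. XTT reagent added and colour read. CC50 calculated.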

SMILES	EC50 [1] [nM]	CC50 at 4 days [2] [nM]
Cc1cc(C2(F)CCC(F)(F)CC2)nc2nc([C@H](Cc3cc(F)cc(F)c3)NC(=O)Cn3nc(C(F)F)c4c3C(F)(F)[C@@H]3C[C@H]43)n(-c3ccc(Cl)c4c(NS(C)(=O)=O)nn(CCN5C[C@@H](C)OC(C)(C)C5)c34)c(=O)c12 (atropisomer, axis not shown; (P)) [Example 577, N-[(1S)-1-[(3P)-3-(4-chloro-3-methanesulfonamido-1-{2-[(6R)-2,2,6-trimethylmorpholin-4-yl]ethyl}-1H-indazol-7-yl)-5-methyl-4-oxo-7-(1,4,4-trifluorocyclohexyl)-3H,4H-pyrido[2,3-d]pyrimidin-2-yl]-2-(3,5-difluorophenyl)ethyl]-2-[(2S,4R)-9-(difluoromethyl)-5,5-difluoro-7,8-diazatricyclo[4.3.0.0^2,^4]nona-1(6),8-dien-7-yl]acetamide]	0.014	> 20
Cc1cc(C2CCC(F)(F)CC2)nc2nc([C@H](Cc3cc(F)cc(F)c3)NC(=O)Cn3nc(C(F)F)c4c3C(F)(F)[C@@H]3C[C@H]43)n(-c3ccc(Cl)c4c(NS(C)(=O)=O)nn(C[C@@H](C)N5C[C@H](F)C[C@H](F)C5)c34)c(=O)c12 (atropisomer, axis not shown; (P)) [Example 683, N-[(1S)-1-[(3P)-3-{4-chloro-1-[(2R)-2-[(3R,5S)-3,5-difluoropiperidin-1-yl]propyl]-3-methanesulfonamido-1H-indazol-7-yl}-7-(4,4-difluorocyclohexyl)-5-methyl-4-oxo-3H,4H-pyrido[2,3-d]pyrimidin-2-yl]-2-(3,5-difluorophenyl)ethyl]-2-[(2S,4R)-9-(difluoromethyl)-5,5-difluoro-7,8-diazatricyclo[4.3.0.0^2,^4]nona-1(6),8-dien-7-yl]acetamide]	0.006	> 20
Cc1cc(C2CCC(F)(F)CC2)nc2nc([C@H](Cc3cc(F)cc(F)c3)NC(=O)Cn3nc(C(F)(F)F)c4c3C[C@@H]3C[C@H]43)n(-c3ccc(Cl)c4c(NS(C)(=O)=O)nn(CCN5CCOCC5)c34)c(=O)c12 (atropisomer, axis not shown; (P)) [Example 115, N-[(1S)-1-[(3P)-3-{4-chloro-3-methanesulfonamido-1-[2-(morpholin-4-yl)ethyl]-1H-indazol-7-yl}-7-(4,4-difluorocyclohexyl)-5-methyl-4-oxo-3H,4H-pyrido[2,3-d]pyrimidin-2-yl]-2-(3,5-difluorophenyl)ethyl]-2-[(2S,4S)-9-(trifluoromethyl)-7,8-diazatricyclo[4.3.0.0^2,^4]nona-1(6),8-dien-7-yl]acetamide]	0.016	> 50
COCCCn1nc(NS(C)(=O)=O)c2c(Cl)ccc(-n3c([C@H](Cc4cc(F)cc(F)c4)NC(=O)Cn4nc(C5CC5)c5c4C[C@@H]4C[C@H]54)nc4nc(C5CCC(F)(F)CC5)cc(C)c4c3=O)c21 (atropisomer, axis not shown; (P)) [Example 87, N-[(1S)-1-[(3P)-3-[4-chloro-3-methanesulfonamido-1-(3-methoxypropyl)-1H-indazol-7-yl]-7-(4,4-difluorocyclohexyl)-5-methyl-4-oxo-3H,4H-pyrido[2,3-d]pyrimidin-2-yl]-2-(3,5-difluorophenyl)ethyl]-2-[(2S,4S)-9-cyclopropyl-7,8-diazatricyclo[4.3.0.0^2,^4]nona-1(6),8-dien-7-yl]acetamide]	0.019	> 50
C[C@@H]1CN(Cc2cc(C3CCC(F)(F)CC3)nc3nc([C@H](Cc4cc(F)cc(F)c4)NC(=O)Cn4nc(C(F)F)c5c4C(F)(F)[C@@H]4C[C@H]54)n(-c4ccc(Cl)c5c(NS(C)(=O)=O)nn(CCN6CCC(F)CC6)c45)c(=O)c23)C[C@H](C)O1 (atropisomer, axis not shown; (P)) [Example 527, N-[(1S)-1-[(3P)-3-{4-chloro-1-[2-(4-fluoropiperidin-1-yl)ethyl]-3-methanesulfonamido-1H-indazol-7-yl}-7-(4,4-difluorocyclohexyl)-5-{[(2R,6S)-2,6-dimethylmorpholin-4-yl]methyl}-4-oxo-3H,4H-pyrido[2,3-d]pyrimidin-2-yl]-2-(3,5-difluorophenyl)ethyl]-2-[(2S,4R)-9-(difluoromethyl)-5,5-difluoro-7,8-diazatricyclo[4.3.0.0^2,^4]nona-1(6),8-dien-7-yl]acetamide]	0.012	> 20
Cc1cc(C2(CF)CCC(F)(F)CC2)nc2nc([C@H](Cc3cc(F)cc(F)c3)NC(=O)Cn3nc(C4CC4)c4c3C[C@@H]3C[C@H]43)n(-c3ccc(Cl)c4c(NS(C)(=O)=O)nn(CCN5C[C@@H](C)O[C@@H](C)C5)c34)c(=O)c12 (atropisomer, axis not shown; (P)) [Example 557, N-[(1S)-1-[(3P)-3-(4-chloro-1-{2-[(2R,6S)-2,6-dimethylmorpholin-4-yl]ethyl}-3-methanesulfonamido-1H-indazol-7-yl)-7-[4,4-difluoro-1-(fluoromethyl)cyclohexyl]-5-methyl-4-oxo-3H,4H-pyrido[2,3-d]pyrimidin-2-yl]-2-(3,5-difluorophenyl)ethyl]-2-[(2S,4S)-9-cyclopropyl-7,8-diazatricyclo[4.3.0.0^2,^4]nona-1(6),8-dien-7-yl]acetamide]	0.007	> 20
COCCN(CCOC)C(=O)Cn1nc(NS(C)(=O)=O)c2c(Cl)ccc(-n3c([C@H](Cc4cc(F)cc(F)c4)NC(=O)Cn4nc(C(F)F)c5c4C(F)(F)[C@@H]4C[C@H]54)nc4nc(C5CCC(F)(F)CC5)cc(C)c4c3=O)c21 (atropisomer, axis not shown; (P)) [Example 401, 2-[(6P)-4-chloro-7-[7-(4,4-difluorocyclohexyl)-2-[(1S)-1-{2-[(2S,4R)-9-(difluoromethyl)-5,5-difluoro-7,8-diazatricyclo[4.3.0.02, 4]nona-1(6),8-dien-7-yl]acetamido}-2-(3,5-difluorophenyl)ethyl]-5-methyl-4-oxo-3H,4H-pyrido[2,3-d]pyrimidin-3-yl]-3-methanesulfonamido-1H-indazol-1-yl]-N,N-bis(2-methoxyethyl)acetamide]	0.012	> 20
CS(=O)(=O)Nc1nn(CCN2CC(F)(F)C2)c2c(-n3c([C@H](Cc4cc(F)cc(F)c4)NC(=O)Cn4nc(C(F)F)c5c4C(F)(F)[C@@H]4C[C@H]54)nc4nc(C5CCC(F)(F)CC5)ccc4c3=O)ccc(Cl)c12 (atropisomer, axis not shown; (P)) [Example 48, N-[(1S)-1-[(3P)-3-{4-chloro-1-[2-(3,3-difluoroazetidin-1-yl)ethyl]-3-methanesulfonamido-1H-indazol-7-yl}-7-(4,4-difluorocyclohexyl)-4-oxo-3H,4H-pyrido[2,3-d]pyrimidin-2-yl]-2-(3,5-difluorophenyl)ethyl]-2-[(2S,4R)-9-(difluoromethyl)-5,5-difluoro-7,8-diazatricyclo[4.3.0.0^2,^4]nona-1(6),8-dien-7-yl]acetamide]	0.018	> 50
COCCCn1nc(NS(C)(=O)=O)c2c(Cl)ccc(-n3c([C@H](Cc4cc(F)cc(F)c4)NC(=O)Cn4nc(C(F)F)c5c4C(F)(F)[C@@H]4C[C@H]54)nc4nc(C5CCC(F)(F)CC5)cc(NC[C@@H]5CCOC5)c4c3=O)c21 (atropisomer, axis not shown; (P)) [Example 568, N-[(1S)-1-[(3P)-3-[4-chloro-3-methanesulfonamido-1-(3-methoxypropyl)-1H-indazol-7-yl]-7-(4,4-difluorocyclohexyl)-4-oxo-5-({[(3S)-oxolan-3-yl]methyl}amino)-3H,4H-pyrido[2,3-d]pyrimidin-2-yl]-2-(3,5-difluorophenyl)ethyl]-2-[(2S,4R)-9-(difluoromethyl)-5,5-difluoro-7,8-diazatricyclo[4.3.0.0^2,^4]nona-1(6),8-dien-7-yl]acetamide]	0.01	> 20
COCCCn1nc(NS(C)(=O)=O)c2c(Cl)ccc(-n3c([C@H](Cc4cc(F)cc(F)c4)NC(=O)Cn4nc(C(F)F)c5c4C(F)(F)[C@@H]4C[C@H]54)nc4nc(C5CCC(F)(F)CC5)cc(NCCN5CCC(F)(F)C5)c4c3=O)c21 (atropisomer, axis not shown; (P)) [Example 552, N-[(1S)-1-[(3P)-3-[4-chloro-3-methanesulfonamido-1-(3-methoxypropyl)-1H-indazol-7-yl]-7-(4,4-difluorocyclohexyl)-5-{[2-(3,3-difluoropyrrolidin-1-yl)ethyl]amino}-4-oxo-3H,4H-pyrido[2,3-d]pyrimidin-2-yl]-2-(3,5-difluorophenyl)ethyl]-2-[(2S,4R)-9-(difluoromethyl)-5,5-difluoro-7,8-diazatricyclo[4.3.0.0^2,^4]nona-1(6),8-dien-7-yl]acetamide]	0.006	> 20
COCCCNc1cc(C2CCC(F)(F)CC2)nc2nc([C@H](Cc3cc(F)cc(F)c3)NC(=O)Cn3nc(C(F)F)c4c3C(F)(F)[C@@H]3C[C@H]43)n(-c3ccc(Cl)c4c(NS(C)(=O)=O)nn(CCCOC)c34)c(=O)c12 (atropisomer, axis not shown; (P)) [Example 285, N-[(1S)-1-[(3P)-3-[4-chloro-3-methanesulfonamido-1-(3-methoxypropyl)-1H-indazol-7-yl]-7-(4,4-difluorocyclohexyl)-5-[(3-methoxypropyl)amino]-4-oxo-3H,4H-pyrido[2,3-d]pyrimidin-2-yl]-2-(3,5-difluorophenyl)ethyl]-2-[(2S,4R)-9-(difluoromethyl)-5,5-difluoro-7,8-diazatricyclo[4.3.0.0^2,^4]nona-1(6),8-dien-7-yl]acetamide]	0.009	> 50
